Structures are written as SMILES. Some results are limits rather than exact numbers.

From ChEMBL document CHEMBL4680278 (J Med Chem, 2020) come the findings set out here.

In one data set the test system is Homo sapiens. Briefly: Anti-seizure activity in Lennox-Gastaut patient assessed as median percent reduction in seizure frequency at 20 mg/kg administered daily for 14 weeks (reference value: 17%). Type of data set: functional. Also on record: scale not given: the % may be the effect or the level left.
Data set [1] in a line: Toxicity in pig assessed as mean arterial blood pressure drop at 50 mg/kg, iv administered for 15 mins by pulse oximetry relative to baseline. The data set is classed as organism-based, Sus scrofa. Particulars: in vivo, 0.25 h.
Data set [2] is described as follows: Bioavailability in dog at 180 mg. Type of data set: ADME, organism-based, Canis lupus familiaris. Particulars: in vivo.
Data set [3] in a line: Volume of distribution in human at 20 mg, iv measured after 0.05 to 72 hrs by gas chromatograph mass spectrometry. Type of data set: ADME, organism-based. The following applies: in vivo, time 0.05-72 hrs.
The nature of data set [4]: Cmax in human plasma at 14+/- 15 mg, po. The arrangement: route oral, dose 14 mg. The following applies: 14 mg. The data set is classed as ADME, cell-free.
The nature of data set [5]: Elimination rate constant in human using oromucosal-spray measured for 6 weeks.
Another data set has as its target T1, Cytochrome P450 1A1 (Homo sapiens, UniProt P04798).
T1 sequence (P04798 whole entry): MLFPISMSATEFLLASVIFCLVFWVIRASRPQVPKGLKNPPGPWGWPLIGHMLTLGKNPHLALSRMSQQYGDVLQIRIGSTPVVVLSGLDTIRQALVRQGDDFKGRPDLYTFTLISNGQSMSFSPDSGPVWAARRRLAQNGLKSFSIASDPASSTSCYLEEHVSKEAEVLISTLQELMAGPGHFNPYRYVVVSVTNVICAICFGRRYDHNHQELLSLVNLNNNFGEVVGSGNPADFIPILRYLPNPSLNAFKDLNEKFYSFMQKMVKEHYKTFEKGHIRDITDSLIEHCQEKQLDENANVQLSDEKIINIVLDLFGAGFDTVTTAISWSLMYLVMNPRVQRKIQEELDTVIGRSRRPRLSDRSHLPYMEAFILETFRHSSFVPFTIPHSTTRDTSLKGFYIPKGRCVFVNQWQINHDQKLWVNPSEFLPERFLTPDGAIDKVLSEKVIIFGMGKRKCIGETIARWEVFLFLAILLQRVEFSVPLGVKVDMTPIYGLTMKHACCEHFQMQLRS
Briefly: Competitive inhibition of human recombinant CYP1A1 using 7-Ethoxyresorufin as substrate by Lineweaver-Burk plot analysis. The data set is classed as ADME. Particulars: read-out: Ki(app).

The nature of data set [6]: Maximum drug concentration in Swiss mouse brain at 120 mg/kg, po measured up to 24 hrs by HPLC analysis. Also on record: route oral, dose 120 mg/kg, time <=24. Type of data set: ADME, organism-based.
The next data set deals with T2, Cytochrome P450 2C11 (Rattus norvegicus, UniProt P08683).
T2 sequence (P08683 whole entry): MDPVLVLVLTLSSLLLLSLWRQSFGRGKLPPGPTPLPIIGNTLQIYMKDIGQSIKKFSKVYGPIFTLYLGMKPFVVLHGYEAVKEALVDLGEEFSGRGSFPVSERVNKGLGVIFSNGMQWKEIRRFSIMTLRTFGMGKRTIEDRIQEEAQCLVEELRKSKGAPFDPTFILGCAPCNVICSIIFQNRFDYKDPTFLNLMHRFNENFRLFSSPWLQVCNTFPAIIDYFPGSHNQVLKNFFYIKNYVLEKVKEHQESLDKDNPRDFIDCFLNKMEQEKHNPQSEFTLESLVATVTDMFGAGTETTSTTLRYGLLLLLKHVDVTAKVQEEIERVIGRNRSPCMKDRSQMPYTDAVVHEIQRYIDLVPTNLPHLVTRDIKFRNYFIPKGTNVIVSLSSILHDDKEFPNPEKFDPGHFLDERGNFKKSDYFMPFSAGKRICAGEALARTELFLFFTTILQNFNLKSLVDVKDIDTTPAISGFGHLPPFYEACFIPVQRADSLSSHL
Briefly: Competitive inhibition of CYP2C11 in rat liver microsomes. The data set is classed as ADME. A general note: Liver microsomes are a subcellular fraction often used to study metabolism.

The nature of data set [7]: Half-life in human at 20 mg via smoking measured after 0.05 to 72 hrs by gas chromatograph mass spectrometry. The data set is classed as ADME. Particulars: in vivo, inhaled or intranasal, time 0.05-72 hrs.

For the compound `C=C(C)[C@@H]1CCC(C)=C[C@H]1c1c(O)cc(CCCCC)cc1O` [CANNABIDIOL], the Activity was 42% in the data set with Homo sapiens and less than 70% in [1]. In data set [2], the bioavailability (in general, the share of a dose that reaches the circulation, judged against a reference dose that is usually intravenous) came out at 13%. For the same compound, the Vd – broadly, the apparent volume that relates the amount in the body to the concentration in plasma or blood – in [3] was 2520 L. The values for the highest concentration (Cmax) in data set [4] and in [6] were 0.9 nM and 4000 nM, respectively. In data set [5], this compound had a k el at 1008 h of 3.33e-05 s⁻¹. Also, the Ki at Cytochrome P450 1A1 was 0.16 µM; at Cytochrome P450 2C11, 20.7 µM. In [7], the half-life (commonly how long it takes for the measured level to halve) was 31 h.
